Tested on: ERKs (Erk1 and Erk2) in hES cells
Assay: ERK phosphorylation Western blot in hES cells (Example 5)
Format: cell-based, human
Experimental: Western blots experiments were performed using protein lysate from hES cells. (A) Cells were pre-treated or not with U0126 (30 μM, 1 hr) and incubated for 5 min in the absence (C, control) or presence of S1P (10 μM). (B) Cells were incubated for different time periods in the absence or presence of S1P (10 μM). (C) Cells were incubated for 5 min with various concentrations of S1P. The phosphorylation of Erk1 and Erk2 (P-Erk1 and P-Erk2) was assessed by immunoblotting with a polyclonal anti-active MAP kinase as described in Materials and Methods. After a stripping procedure, the same blots reprobed with a monoclonal anti-MAP kinase, allowed the detection of Erk1 and Erk2.
For immunoblot analysis, cells were transferred into 24 well plates (8 colonies per well) without MEFs, and 24 hr later, were grown in the absence of serum for 18 hrs.
In some experiments, cells were pre-treated for 1 hr with U0126 (30 μM) or for 18 hrs with PTX (100 μg/ml).
hES3 cells were lysed following removal of the supernatants by addition of a reducing loading buffer (2% SDS, 62.5 mM Tris pH 6.8, 0.1 M DTT, 0.01% bromophenol blue) containing 1 mM sodium orthovanadate. Samples were boiled for 10 min and centrifuged at 13000 g for 15 min, and protein lysates (approx. 80 μg) were separated by SDS-polyacrylamide gel electrophoresis (10% polyacrylamide, w/v). Proteins were transferred to nitrocellulose (Hybond-ECL, Amersham) and immunoblotting was carried out with rabbit polyclonal anti-active mitogen-activated protein (MAPK) antibodies raised against a dually phosphorylated MAPK peptide (Promega, Madison, Wis., USA). Peroxidase-coupled secondary antibody (Dako) was detected by exposure of autoradiographic films in the presence of a chemiluminescent detection reagent (ECL, Amersham). Stripping of antibodies was achieved by incubating the membrane during 30 min at 50° C. in a buffer containing 100 mM mercaptoethanol, 2% SDS, 62.5 mM Tris-HCl pH 6.7. The membrane was then reprobing with rabbit polyclonal anti-ERK1/2 antibodies (Promega), and then with peroxidase-coupled secondary antibodies (Dako).

CCCCCCCCCCCCC/C=C/[C@@H](O)[C@@H](N)COP(=O)(O)O [S1P, Sphingosine-1-phosphate]
concentration dependence of ERKs stimulation (5 min, various concentrations of S1P): concentration dependant manner | duration of ERKs stimulation (S1P 10 μM): at least 60 min | phosphorylation of ERKs (hES cells, 5 min, S1P 10 μM): stimulated the phosphorylation of ERKs
